What follows are compounds tested against recombinant DYRK1A kinase (Homo sapiens (Human), UniProt Q13627) (assay: DYRK1A kinase assay (Ser/Thr 18 peptide Z-lyte FRET assay)). Conditions: DYRK1A kinase activity; 15 μM ATP, 1 h room temperature; method text calls the value IC50.
Format: biochemical
Experimental: Representative compounds were screened using the assay procedure for DYRK1A kinase activity as described below.
Each compound was dissolved in DMSO as a 10 mM stock and used to prepare compound source plates. Serial dilution (1:3, 11-point dose-response curves from 10 μM to 0.00016 μM) and compound transfer was performed using the ECHO 550 (Labcyte, Sunnyvale, CA) into 1536-well black-walled round bottom plates (Corning).
The DYRK1A kinase assay was run using the Ser/Thr 18 peptide Z-lyte assay kit according to manufacturer's instructions (Life Technologies—a Division of Thermo-Fisher). This is a non-radioactive assay using fluorescence resonance energy transfer (FRET) between coumarin and fluorescein to detect kinase activity which is represented as a ratio of coumarin emission/fluorescein emission.
Briefly, recombinant DYRK1A kinase, ATP and Ser/Thr peptide 18 were prepared in 1× Kinase buffer to final concentrations of 0.25 μg/mL, 15 μM, and 4 μM respectively. The mixture was allowed to incubate with the representative compounds for one hour at room temperature. All reactions were performed in duplicate. Unphosphorylated (“0% Control”) and phosphorylated (“100% control”) forms of Ser/Thr 18 served as control reactions. Additionally, an 11-point dose-response curve of Staurosporine (1 uM top) was run to serve as a positive compound control.
After incubation, Development Reagent A was diluted in Development Buffer then added to the reaction and allowed to further incubate for one hour at room temperature. The plate was read at Ex 400 Em […] to detect the coumarin signal and Ex 400 Em 520 to measure the signal (EnVision Multilabel Plate Reader, PerkinElmer).
The Emission ratio (Em) was calculated as a ratio of the coumarin (C) emission signal (at 445 nm)/Fluorescein (F) emission signal (at 520 nm). The percent phosphorylation was then calculated using the following formula: [1−((Em ratio×F100%)−C100%)/((C0%−C100%)+(Em ratio×(F100%−F0%)))]. Dose-response curves were generated, and inhibitory concentration (IC50) values were calculated using non-linear regression curve fit in the Dotmatics' Studies Software (Bishops Stortford, UK).

| Compound | EC50 [µM] |
| --- | --- |
| 4-Methoxy-N-(cis-4-methoxycyclohexyl)-5-(1-methyl-1H-benzo[d][1,2,3]triazol-6-yl)-7H-pyrrolo[2,3-d]pyrimidin-2-amine [Compound 3114] | 0.0012 |
| 5-(1-(2,2-Difluoroethyl)-1H-benzo[d][1,2,3]triazol-6-yl)-4-methoxy-N-(cis-4-(trifluoromethoxy)cyclohexyl)-7H-pyrrolo[2,3-d]pyrimidin-2-amine [Compound 2297] | 0.459 |
| 5-(1-(2,2-Difluoroethyl)-1H-benzo[d][1,2,3]triazol-6-yl)-N-(2-fluoro-2-methylpropyl)-4-methoxy-7H-pyrrolo[2,3-d]pyrimidin-2-amine [Compound 2292] | 0.0174 |
| 5-(1-(2,2-Difluoroethyl)-1H-benzo[d][1,2,3]triazol-6-yl)-N-(cis-4-(difluoromethoxy)cyclohexyl)-4-methoxy-7H-pyrrolo[2,3-d]pyrimidin-2-amine [Compound 2296] | 0.103 |
| 5-(2-Cyclopropyl-7H-pyrrolo[2,3-d]pyrimidin-5-yl)-N-methyl-N-(tetrahydro-2H-pyran-4-yl)pyrazolo[1,5-a]pyridine-3-carboxamide [Compound 1552] | 0.195 |
| 5-(3-Chloropyrazolo[1,5-a]pyrimidin-5-yl)-N-(2-fluoro-2-methylpropyl)-7H-pyrrolo[2,3-d]pyrimidin-2-amine [Compound 1680] | 0.0261 |
| 5-(Imidazo[1,2-a]pyrazin-6-yl)-7H-pyrrolo[2,3-d]pyrimidine [Compound 491] | 0.0155 |
| COc1ccc(-c2c[nH]c3nc(NCC(C)(C)F)ncc23)cc1 [Compound 1, N-(2-Fluoro-2-methylpropyl)-5-(4-methoxyphenyl)-7H-pyrrolo[2,3-d]pyrimidin-2-amine] | 0.236 |
| COc1ccc(-c2c[nH]c3nc(NC4CCN(S(C)(=O)=O)CC4)ncc23)c(OC)c1 [Compound 2, 5-(2,4-Dimethoxyphenyl)-N-(1-(methylsulfonyl)piperidin-4-yl)-7H-pyrrolo [2,3-d]pyrimidin-2-amine] | 0.0438 |
| Cn1cc(-c2c[nH]c3nc(NCC(C)(C)F)ncc23)ccc1=O [Compound 3, 5-(2-((2-Fluoro-2-methylpropyl)amino)-7H-pyrrolo[2,3-d]pyrimidin-5-yl)-1-methylpyridin-2(1H)-one] | 0.0221 |
| Cn1cc(-c2c[nH]c3nc(NC4CCC(F)(F)CC4)ncc23)ccc1=O [Compound 4, 5-(2-((4,4-Difluorocyclohexyl)amino)-7H-pyrrolo[2,3-d]pyrimidin-5-yl)-1-methylpyridin-2(1H)-one] | 0.411 |
| CC(C)(F)CNc1ncc2c(-c3ccc(C(F)F)nc3)c[nH]c2n1 [Compound 5, 5-(6-(Difluoromethyl)pyridin-3-yl)-N-(2-fluoro-2-methylpropyl)-7H-pyrrolo [2,3-d]pyrimidin-2-amine] | 1.4 |
| COc1ccc(-c2c[nH]c3nc(NCC(C)(C)F)ncc23)cn1 [Compound 6, N-(2-Fluoro-2-methylpropyl)-5-(6-methoxypyridin-3-yl)-7H-pyrrolo[2,3-d]pyrimidin-2-amine] | 0.0339 |
| CC(C)(F)CNc1ncc2c(-c3ccc(OC(F)F)nc3)c[nH]c2n1 [Compound 7] | > 10 |
| COc1ccc(-c2c[nH]c3ncnc(N[C@H]4CC[C@H](N5CCOCC5)CC4)c23)cn1 [Compound 8, 5-(6-Methoxypyridin-3-yl)-N-(trans-4-morpholinocyclohexyl)-7H-pyrrolo [2,3-d]pyrimidin-4-amine] | 0.768 |
| COc1ncc(-c2c[nH]c3nc(NCC(C)(C)F)ncc23)cn1 [Compound 9, N-(2-Fluoro-2-methylpropyl)-5-(2-methoxypyrimidin-5-yl)-7H-pyrrolo[2,3-d]pyrimidin-2-amine] | 0.778 |
| CN1CCN(c2ccc(CNc3ncc4c(-c5ccc6c(c5)CNC6=O)c[nH]c4n3)cn2)CC1 [Compound 10, 5-(2-(((6-(4-Methylpiperazin-1-yl)pyridin-3-yl)methyl)amino)-7H-pyrrolo [2,3-d]pyrimidin-5-yl)isoindolin-1-one] | 0.0968 |
| Cc1nc2ccc(-c3c[nH]c4nc(NCC(C)(C)F)ncc34)nc2s1 [Compound 54, N-(2-Fluoro-2-methylpropyl)-5-(2-methylthiazolo[5,4-b]pyridin-5-yl)-7H-pyrrolo[2,3-d]pyrimidin-2-amine] | 0.671 |

| Compound | EC50 [µM] |
| --- | --- |
| CN1CCN(c2ccc(Nc3ncc4c(-c5cc6cnccc6s5)c[nH]c4n3)cn2)CC1 [Compound 93, N-(6-(4-Methylpiperazin-1-yl)pyridin-3-yl)-5-(thieno[3,2-c]pyridin-2-yl)-7H-pyrrolo[2,3-d]pyrimidin-2-amine] | 0.0064 |
| c1cnc2sc(-c3c[nH]c4ncncc34)nc2c1 [Compound 98, 2-(7H-Pyrrolo[2,3-d]pyrimidin-5-yl)thiazolo[5,4-b]pyridine] | 0.0221 |
| CCNc1ncc2c(-c3ccc4nccn4c3)c[nH]c2n1 [Compound 107, N-Ethyl-5-(imidazo[1,2-a]pyridin-6-yl)-7H-pyrrolo[2,3-d]pyrimidin-2-amine] | 0.0016 |
| FC(F)(F)CNc1ncc2c(-c3ccc4nccn4c3)c[nH]c2n1 [Compound 114, 5-(Imidazo[1,2-a]pyridin-6-yl)-N-(2,2,2-trifluoroethyl)-7H-pyrrolo[2,3-d]pyrimidin-2-amine] | 0.0046 |
| Fc1cnc2ccc(-c3c[nH]c4nc(C5CC5)ncc34)cn12 [Compound 145, 2-Cyclopropyl-5-(3-fluoroimidazo[1,2-a]pyridin-6-yl)-7H-pyrrolo[2,3-d]pyrimidine] | 0.0943 |
| C[C@@H](Nc1ncc2c(-c3ccc4ncc(F)n4c3)c[nH]c2n1)C(F)(F)F [Compound 158, (R)-5-(3-Fluoroimidazo[1,2-a]pyridin-6-yl)-N-(1,1,1-trifluoropropan-2-yl)-7H-pyrrolo[2,3-d]pyrimidin-2-amine] | 0.0055 |
| CC(C)CNc1ncc2c(-c3cc(F)c4nccn4c3)c[nH]c2n1 [Compound 196, 5-(8-Fluoroimidazo[1,2-a]pyridin-6-yl)-N-isobutyl-7H-pyrrolo[2,3-d]pyrimidin-2-amine] | 0.0605 |
| CC(C)(C)CNc1ncc2c(-c3cc(F)c4nccn4c3)c[nH]c2n1 [Compound 197, 5-(8-Fluoroimidazo[1,2-a]pyridin-6-yl)-N-neopentyl-7H-pyrrolo[2,3-d]pyrimidin-2-amine] | 0.0754 |
| Fc1cc(-c2c[nH]c3nc(NCCC(F)(F)F)ncc23)cn2ccnc12 [Compound 204, 5-(8-Fluoroimidazo[1,2-a]pyridin-6-yl)-N-(3,3,3-trifluoropropyl)-7H-pyrrolo [2,3-d]pyrimidin-2-amine] | 0.0066 |
| Fc1cc(-c2c[nH]c3nc(NCC4CC4)ncc23)cn2ccnc12 [Compound 207, N-(Cyclopropylmethyl)-5-(8-fluoroimidazo[1,2-a]pyridin-6-yl)-7H-pyrrolo [2,3-d]pyrimidin-2-amine] | 0.0274 |
| CO[C@H]1CC[C@@H](Nc2ncc3c(-c4cc(F)c5nccn5c4)c[nH]c3n2)CC1 [Compound 216, 5-(8-Fluoroimidazo[1,2-a]pyridin-6-yl)-N-(cis-4-methoxycyclohexyl)-7H-pyrrolo[2,3-d]pyrimidin-2-amine] | 0.0149 |
| CN1CCC(Nc2ncc3c(-c4cc(F)c5nccn5c4)c[nH]c3n2)CC1 [Compound 219, 5-(8-Fluoroimidazo[1,2-a]pyridin-6-yl)-N-(1-methylpiperidin-4-yl)-7H-pyrrolo[2,3-d]pyrimidin-2-amine] | 0.0055 |
| Fc1cc(-c2c[nH]c3nc(NC4CCOCC4)ncc23)cn2ccnc12 [Compound 221, 5-(8-Fluoroimidazo[1,2-a]pyridin-6-yl)-N-(tetrahydro-2H-pyran-4-yl)-7H-pyrrolo[2,3-d]pyrimidin-2-amine] | 0.023 |
| Cc1cn2cc(-c3c[nH]c4nc(C5CC5)ncc34)cc(F)c2n1 [Compound 233, 2-Cyclopropyl-5-(8-fluoro-2-methylimidazo[1,2-a]pyridin-6-yl)-7H-pyrrolo [2,3-d]pyrimidine] | 0.268 |
| Cc1cn2cc(-c3c[nH]c4nc(NC5CCC(F)(F)CC5)ncc34)cc(F)c2n1 [Compound 258, N-(4,4-Difluorocyclohexyl)-5-(8-fluoro-2-methylimidazo[1,2-a]pyridin-6-yl)-7H-pyrrolo[2,3-d]pyrimidin-2-amine] | 0.0453 |
| CCOc1ncc2c(-c3cc(F)c4ncc(C)n4c3)c[nH]c2n1 [Compound 293, 2-Ethoxy-5-(8-fluoro-3-methylimidazo[1,2-a]pyridin-6-yl)-7H-pyrrolo[2,3-d]pyrimidine] | 0.0936 |
| Fc1cc(-c2c[nH]c3nc(C4CC4)ncc23)cn2c(C(F)F)cnc12 [Compound 359, 2-Cyclopropyl-5-(3-(difluoromethyl)-8-fluoroimidazo[1,2-a]pyridin-6-yl)-7H-pyrrolo[2,3-d]pyrimidine] | 0.115 |
